Values after ≈ are worked out from the molar mass of the structure shown. Values joined by “and” are separate entries in the source; they are usually repeats but may differ in a detail not shown here. Equal entries are not always repeated. Where two headings read alike, the source gives them in different places.
How the values were obtained:
MtNDH-2 = MtNDH-2 (Mycobacterium tuberculosis, UniProt P95160); test: biochemical; design: species or system M. tuberculosis; settings: MtNDH-2 IC50
[1] = tested on: E. coli (ATCC 25922, wild-type); test: MIC on ESKAPE pathogens, E. coli wild-type; format: cell-based; settings: Escherichia coli, ATCC25922; E. coli ATCC 25922, wild-type; read-out: MIC Ec WT
[2] = tested on: E. coli (ΔtolC efflux-defective mutant, isogenic to ATCC 25922); test: microbe, parasite or virus in culture; format: cell-based; settings: Escherichia coli, ATCC25922, read-out: MIC Ec ΔtolC
[3] = tested on: E. coli (D22, lpxC mutant, drug-hypersensitive); test: microbe, parasite or virus in culture; format: cell-based; settings: Escherichia coli, read-out: MIC Ec D22
[4] = tested on: P. aeruginosa (PAO1, wild-type); test: MIC on ESKAPE pathogens, P. aeruginosa wild-type; format: cell-based; settings: Pseudomonas aeruginosa, PAO1, P. aeruginosa PAO1, wild-type; read-out: MIC Pa WT
[5] = tested on: P. aeruginosa (PAO750 efflux-defective mutant, isogenic to PAO1); test: microbe, parasite or virus in culture; format: cell-based; settings: Pseudomonas aeruginosa, PAO1, read-out: MIC Pa efflux
[6] = tested on: A. baumannii (ATCC 19606, wild-type); test: MIC on ESKAPE pathogens, A. baumannii; format: cell-based; settings: Acinetobacter baumannii, ATCC19606; A. baumannii ATCC 19606, wild-type; read-out: MIC Ab WT
[7] = tested on: S. aureus (ATCC 29213, wild-type); test: MIC on ESKAPE pathogens, S. aureus; format: cell-based; settings: Staphylococcus aureus, ATCC29213
[8] = tested on: M. tuberculosis strain H37Rv (ATCC 25618); test: MIC on M. tuberculosis by resazurin reduction microplate assay (REMA); format: cell-based; settings: Mycobacterium tuberculosis, M. tuberculosis H37Rv, read-out: MIC Mtb
[9] = tested on: K. pneumonia (ATCC 13833, wild-type); test: MIC on ESKAPE pathogens, K. pneumoniae
MsNDH-2 = MsNDH-2 (Mycolicibacterium smegmatis, UniProt A0QYD6); test: Inhibition of MsNDH-2 (NADH oxidation with menadione, absorbance at 340 nm); format: biochemical, M. smegmatis
Chain of MsNDH-2 (A0QYD6 1-457): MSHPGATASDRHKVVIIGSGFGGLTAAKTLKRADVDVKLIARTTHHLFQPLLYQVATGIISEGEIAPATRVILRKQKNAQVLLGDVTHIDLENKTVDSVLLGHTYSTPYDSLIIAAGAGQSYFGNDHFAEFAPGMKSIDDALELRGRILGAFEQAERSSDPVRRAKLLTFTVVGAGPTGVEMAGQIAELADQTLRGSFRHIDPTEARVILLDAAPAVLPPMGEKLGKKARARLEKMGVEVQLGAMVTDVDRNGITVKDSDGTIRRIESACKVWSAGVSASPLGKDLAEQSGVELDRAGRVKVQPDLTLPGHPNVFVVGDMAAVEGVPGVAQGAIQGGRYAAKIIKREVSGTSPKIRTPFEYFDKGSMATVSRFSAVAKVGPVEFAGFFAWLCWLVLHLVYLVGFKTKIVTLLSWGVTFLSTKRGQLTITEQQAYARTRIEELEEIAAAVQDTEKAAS

[10] = Cytotoxicity on the MRC-5 cell line (resazurin); format: cell-based; settings: human, MRC-5SV2 cells, MRC-5SV2, 3 days
Experimental: MRC-5SV2 cells were cultured in Earl’s MEM + 5% FCSi. Assays were performed in 96-well microtiter plates, each well containing about 10^4 cells/well. After 3 days of incubation with or without compounds, cell viability was assessed fluorimetrically after the addition of resazurin (λex 550 nm, λem 590 nm). The results were expressed as % reduction in cell growth/viability compared to untreated control wells and CC50 was determined. Testing/retesting strategy was as described above for HepG2 cells.

[11] = tested on: E. coli MG1655 ΔtolC resistant mutants; test: microbe, parasite or virus in culture; format: cell-based; settings: for MIC: Escherichia coli
[12] = 95% confidence interval in parentheses, 50 nM enzyme, 50 μM menadione, >100: no significant inhibition at 100 μM
[13] = same IC50 given in μg/mL to assist comparisons with MICs

Chain of MtNDH-2 (P95160 2-463, added parts left off): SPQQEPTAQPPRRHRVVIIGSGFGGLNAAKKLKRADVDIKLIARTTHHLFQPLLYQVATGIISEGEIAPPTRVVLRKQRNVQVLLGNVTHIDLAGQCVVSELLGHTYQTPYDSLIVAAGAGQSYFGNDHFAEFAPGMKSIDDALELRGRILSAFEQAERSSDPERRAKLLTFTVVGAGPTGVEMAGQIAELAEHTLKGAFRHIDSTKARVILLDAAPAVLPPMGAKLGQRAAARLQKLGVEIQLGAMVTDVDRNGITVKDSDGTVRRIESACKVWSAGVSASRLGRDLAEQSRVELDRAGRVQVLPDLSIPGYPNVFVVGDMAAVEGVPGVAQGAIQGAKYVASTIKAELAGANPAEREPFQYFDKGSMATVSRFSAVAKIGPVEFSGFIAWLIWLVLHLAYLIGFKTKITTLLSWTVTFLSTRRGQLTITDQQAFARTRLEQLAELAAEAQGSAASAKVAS

Structure (SMILES)	IC50 (MtNDH-2)	MIC [1] [µg/mL]	MIC [2] [µg/mL]	MIC [3] [µg/mL]	MIC [4] [µg/mL]	MIC [5] [µg/mL]	MIC [6] [µg/mL]	MIC [7] [µg/mL]	MIC [8] [µg/mL]	MIC Kp WT [9] [µg/mL]	IC50 (MsNDH-2; [12]) [µM]	IC50 (MsNDH-2; [13]) [µM]	IC50 at 3 days ([10]; resazurin) [µM]	IC50 at 3 days ([10]; value in parentheses) [µg/mL]	further results
Nc1nc(Nc2ccc3nc(-c4ccc(F)cc4)cc(N)c3c2)cc(N2CCCC(O)C2)n1 (stereo not drawn) [Compound 8o, 1-(2-Amino-6-((4-amino-2-(4-fluorophenyl)quinolin-6-yl)amino)pyrimidin-4-yl)piperidin-3-ol]	3.4 µM and 3.37 µM	32 (≈ 71.8 µM)	16 (≈ 35.9 µM)	16 (≈ 35.9 µM)	> 64	32 (≈ 71.8 µM)	32 (≈ 71.8 µM)	64 (≈ 144 µM)	10.2 (≈ 22.9 µM)	>64	–	–	–	–	–
CC(C)N1CCN(c2cc(Nc3ccc4nc(-c5ccc(F)cc5)cc(N)c4c3)nc(N)n2)CC1 [Compound 8d, N^6-(2-Amino-6-(4-isopropylpiperazin-1-yl)pyrimidin-4-yl)-2-(4-fluorophenyl)quinoline-4,6-diamine]	3.6 µM	64 (≈ 135 µM)	32 (≈ 67.7 µM)	32 (≈ 67.7 µM)	64 (≈ 135 µM)	32 (≈ 67.7 µM)	> 128	128 (≈ 271 µM)	7.6 (≈ 16.1 µM)	128 (≈ 271 µM)	19	18.8	–	–	–
CN1CCN(c2cc(Nc3ccc4nc(-c5ccc(F)cc5)cc(N)c4c3)nc(N)n2)CC1 [Compound 8c, N^6-(2-Amino-6-(4-methylpiperazin-1-yl)pyrimidin-4-yl)-2-(4-fluorophenyl)quinoline-4,6-diamine]	6.2 µM and 6.3 µM	128 (≈ 288 µM)	16 (≈ 36 µM)	16 (≈ 36 µM)	64 (≈ 144 µM)	16 (≈ 36 µM)	> 128	128 (≈ 288 µM)	15.6 (≈ 35.1 µM)	>128	40	40.5	–	–	–
NCC1CCN(c2cc(Nc3ccc4nc(-c5ccc(F)cc5)cc(N)c4c3)nc(N)n2)CC1 [Compound 8h, N^6-(2-Amino-6-(4-(aminomethyl)piperidin-1-yl)pyrimidin-4-yl)-2-(4-fluorophenyl)quinoline-4,6-diamine]	–	64 (≈ 140 µM)	16 (≈ 34.9 µM)	8 (≈ 17.4 µM)	4 (≈ 8.72 µM)	8 (≈ 17.4 µM)	> 128	32 (≈ 69.8 µM)	> 46	>128	6.9	6.98	8	3.7	–
Nc1nc(Nc2ccc3nc(-c4ccc(F)cc4)cc(N)c3c2)cc(N2CCNCC2)n1 [Compound 8a, N^6-(2-Amino-6-(piperazin-1-yl)pyrimidin-4-yl)-2-(4-fluorophenyl)quinoline-4,6-diamine]	3.1 µM and 3.02 µM	8 (≈ 18.6 µM)	–	4 (≈ 9.29 µM)	8 (≈ 18.6 µM)	4 (≈ 9.29 µM)	> 64	32 (≈ 74.3 µM)	> 43	>64	9.7	9.76	24	10	MIC ([11]; MG1655, read-out: MIC mutant, mutant CH4954 raised against 8a, basS (pmrB) Glu121Lys waaY (rfaY) Asp160fs): 8 µg/mL (≈ 18.6 µM); MIC ([11]; MG1655, read-out: MIC mutant, mutant CH4955 raised against 8a, basR (pmrA) Gly53Glu): 16 µg/mL (≈ 37.2 µM); MIC ([11]; MG1655, read-out: MIC mutant, mutant CH4956 raised against 8a, basS (pmrB) Leu10Arg): 8 µg/mL (≈ 18.6 µM); MIC ([11]; MG1655, read-out: MIC mutant, mutant CH4957 raised against 8a, asmA Asn295fs waaP (rfaP) Glu258 stop codon): 16 µg/mL (≈ 37.2 µM); MIC ([11]; MG1655, read-out: MIC mutant, mutant CH5084 raised against 8a, basS (pmrB) Ala159Pro preB Ala13fs): 16 µg/mL (≈ 37.2 µM); fold increase of MIC ([11]; mutant CH4954 vs parent E. coli MG1655 ΔtolC): 2; fold increase of MIC ([11]; mutant CH4955 vs parent E. coli MG1655 ΔtolC): 4; fold increase of MIC ([11]; mutant CH4956 vs parent E. coli MG1655 ΔtolC): 2; fold increase of MIC ([11]; mutant CH4957 vs parent E. coli MG1655 ΔtolC): 4; fold increase of MIC ([11]; mutant CH5084 vs parent E. coli MG1655 ΔtolC): 4
CN(C)C1CCN(c2cc(Nc3ccc4nc(-c5ccc(F)cc5)cc(N)c4c3)nc(N)n2)CC1 [Compound 8f, N^6-(2-Amino-6-(4-(dimethylamino)piperidin-1-yl)pyrimidin-4-yl)-2-(4-fluorophenyl)quinoline-4,6-diamine]	5.6 µM and 5.5 µM	> 128	32 (≈ 67.7 µM)	32 (≈ 67.7 µM)	32 (≈ 67.7 µM)	–	> 128	> 128	10.9 (≈ 23.1 µM)	>128	> 100	> 99.5	–	–	–
Nc1nc(Nc2ccc3nc(-c4ccc(F)cc4)cc(N)c3c2)cc(N2CCC(O)CC2)n1 [Compound 8p, 1-(2-Amino-6-((4-amino-2-(4-fluorophenyl)quinolin-6-yl)amino)pyrimidin-4-yl)piperidin-4-ol]	5.1 µM and 5.16 µM	64 (≈ 144 µM)	32 (≈ 71.8 µM)	32 (≈ 71.8 µM)	> 64	> 64	64 (≈ 144 µM)	64 (≈ 144 µM)	16.5 (≈ 37 µM)	>64	–	–	–	–	–
CN1CCCC(COc2cc(Nc3ccc4nc(-c5ccc(F)cc5)cc(N)c4c3)nc(N)n2)C1 (stereo not drawn) [Compound 9c, N^6-(2-Amino-6-((1-methylpiperidin-3-yl)methoxy)pyrimidin-4-yl)-2-(4-fluorophenyl)quinoline-4,6-diamine]	3.3 µM and 3.38 µM	64 (≈ 135 µM)	16 (≈ 33.8 µM)	32 (≈ 67.6 µM)	> 64	16 (≈ 33.8 µM)	> 64	64 (≈ 135 µM)	37.5 (≈ 79.2 µM)	>64	14	13.7	–	–	–
Nc1ccc2nc(-c3ccc(F)cc3)cc(N)c2c1 [Compound 6, 2-(4-Fluorophenyl)quinoline-4,6-diamine]	1.2 µM and 1.18 µM	> 64	> 64	64 (≈ 253 µM)	> 64	64 (≈ 253 µM)	> 64	64 (≈ 253 µM)	12.5 (≈ 49.4 µM)	>64	–	–	–	–	–
Nc1nc(Nc2ccc3nc(-c4ccc(F)cc4)ccc3c2)cc(N2CCNCC2)n1 [Compound 21, N^4-(2-(4-Fluorophenyl)quinolin-6-yl)-6-(piperazin-1-yl)pyrimidine-2,4-diamine]	–	16 (≈ 38.5 µM)	8 (≈ 19.3 µM)	16 (≈ 38.5 µM)	> 64	4 (≈ 9.63 µM)	32 (≈ 77 µM)	8 (≈ 19.3 µM)	22.3 (≈ 53.7 µM)	64 (≈ 154 µM)	32	31.3	8	3.3	–
Nc1nc(Nc2ccc3nc(-c4ccc(F)cc4)cc(N)c3c2)cc(N2CCOCC2)n1 [Compound 8b, N^6-(2-Amino-6-morpholinopyrimidin-4-yl)-2-(4-fluorophenyl) quinoline-4,6-diamine]	–	64 (≈ 148 µM)	16 (≈ 37.1 µM)	16 (≈ 37.1 µM)	≥ 64	32 (≈ 74.2 µM)	16 (≈ 37.1 µM)	32 (≈ 74.2 µM)	–	64 (≈ 148 µM)	> 100	> 99.7	–	–	–
Nc1nc(Cl)cc(Nc2ccc3nc(-c4ccc(F)cc4)cc(N)c3c2)n1 [Compound 7, N^6-(2-Amino-6-chloropyrimidin-4-yl)-2-(4-fluorophenyl)quinoline-4,6-diamine]	–	> 128	64 (≈ 168 µM)	16 (≈ 42 µM)	> 128	16 (≈ 42 µM)	2 (≈ 5.25 µM)	4 (≈ 10.5 µM)	4.7 (≈ 12.3 µM)	>128	3.1	3.15	1.1	0.4	–
Fc1ccc(-c2ccc3cc(Nc4cc(N5CCNCC5)ncn4)ccc3n2)cc1 [Compound 23, 2-(4-Fluorophenyl)-N-(6-(piperazin-1-yl)pyrimidin-4-yl)quinolin-6-amine]	–	> 64	8 (≈ 20 µM)	16 (≈ 40 µM)	> 64	4 (≈ 9.99 µM)	64 (≈ 160 µM)	8 (≈ 20 µM)	7.1 (≈ 17.7 µM)	64 (≈ 160 µM)	24	24	7.9	3.2	–

From paper PMC8922281, “Synthesis and In Vitro Biological Evaluation of Quinolinyl Pyrimidines Targeting Type II NADH-Dehydrogenase (NDH-2)” (ACS Infectious Diseases, 2022)
